Reference: patent US11541028B2, “Peptide pharmaceuticals for treatment of NASH and other disorders” (Mederis Diabetes LLC, priority 2018, dated 2023)

Tests used:
human GLP-1 receptor = target: T1, human GLP-1 receptor (Homo sapiens, UniProt P43220); experiment: DiscoveRx LeadHunter cellular assay, cAMP stimulation, GLP-1 receptor in CHO cells; assay type: cell-based; conditions: human GLP-1 receptor in CHO cells (DiscoveRx); read-out: EC50 cAMP GLP-1 R
T1 construct: host or cells: CHO cells

human glucagon receptor = target: T2, human glucagon receptor (Homo sapiens, UniProt P47871); experiment: DiscoveRx LeadHunter cellular assay, cAMP stimulation, glucagon receptor in CHO cells; assay type: cell-based
T2 construct: host or cells: CHO cells
T2 sequence (P47871 26-477): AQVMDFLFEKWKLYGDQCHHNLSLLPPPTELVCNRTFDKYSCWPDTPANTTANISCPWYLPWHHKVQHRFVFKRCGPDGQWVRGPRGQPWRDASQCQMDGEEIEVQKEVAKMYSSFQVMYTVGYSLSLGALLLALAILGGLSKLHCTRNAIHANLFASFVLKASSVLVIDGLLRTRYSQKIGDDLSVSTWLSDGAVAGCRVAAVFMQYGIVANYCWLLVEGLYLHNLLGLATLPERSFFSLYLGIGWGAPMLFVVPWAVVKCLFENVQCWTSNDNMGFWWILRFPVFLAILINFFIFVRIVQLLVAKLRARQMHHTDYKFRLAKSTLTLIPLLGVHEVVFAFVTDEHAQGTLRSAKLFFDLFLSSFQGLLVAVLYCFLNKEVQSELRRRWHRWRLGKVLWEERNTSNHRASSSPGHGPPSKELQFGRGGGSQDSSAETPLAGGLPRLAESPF

T1 sequence (P43220 24-463): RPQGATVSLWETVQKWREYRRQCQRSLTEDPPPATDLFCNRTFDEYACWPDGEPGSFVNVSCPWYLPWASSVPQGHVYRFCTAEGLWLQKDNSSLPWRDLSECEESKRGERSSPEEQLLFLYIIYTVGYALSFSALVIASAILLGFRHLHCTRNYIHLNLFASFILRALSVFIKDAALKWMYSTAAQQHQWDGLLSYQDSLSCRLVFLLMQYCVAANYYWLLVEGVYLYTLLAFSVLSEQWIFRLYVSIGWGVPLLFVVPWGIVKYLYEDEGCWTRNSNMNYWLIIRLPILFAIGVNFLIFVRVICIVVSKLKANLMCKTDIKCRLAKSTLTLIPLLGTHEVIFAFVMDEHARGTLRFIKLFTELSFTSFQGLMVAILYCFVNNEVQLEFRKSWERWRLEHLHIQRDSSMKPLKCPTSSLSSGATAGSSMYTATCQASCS

| EC50 (human GLP-1 receptor) [nM] | EC50 (human glucagon receptor) [nM] | Compound |
| --- | --- | --- |
| 0.119 | 0.598 | CCCCCCCCCCCCCCO[C@@H]1O[C@H](CO[C@H]2O[C@H](C(=O)N[C@@H](CCC(=O)NCCCC[C@H](NC(=O)[C@@H](NC(=O)[C@H](Cc3ccccc3)NC(=O)[C@H](CCC(=O)O)NC(=O)[C@@H]3CCCCNC(=O)CC[C@H](NC(=O)[C@H](CC(=O)O)NC(=O)[C@H](CC(C)C)NC(=O)[C@H](Cc4ccc(O)cc4)NC(=O)[C@H](CCCCN)NC(=O)[C@H](CO)NC(=O)[C@H](Cc4ccc(O)cc4)NC(=O)[C@H](CC(=O)O)NC(=O)[C@H](CO)NC(=O)[C@@H](NC(=O)[C@H](Cc4ccccc4)NC(=O)[C@@H](NC(=O)CNC(=O)[C@H](CCC(N)=O)NC(=O)C(C)(C)NC(=O)[C@@H](N)Cc4c[nH]cn4)[C@@H](C)O)[C@@H](C)O)C(=O)N[C@@H](CCC(N)=O)C(=O)N[C@@H](C)C(=O)N[C@@H](C)C(=O)N3)[C@@H](C)CC)C(=O)N[C@@H](Cc3c[nH]c4ccccc34)C(=O)N[C@@H](CC(C)C)C(=O)N[C@@H](CC(C)C)C(=O)N[C@@H](CCC(N)=O)C(=O)N[C@H](C(=O)O)[C@@H](C)O)C(=O)O)[C@H](O)[C@H](O)[C@H]2O)[C@@H](O)[C@H](O)[C@H]1O [EU-A1617] |
| 0.051 | 0.24 | CCCCCCCCCCCCO[C@@H]1O[C@H](CO[C@H]2O[C@H](C(=O)N[C@@H](CCC(=O)N[C@@H](CCC(=O)NCCCC[C@H](NC(=O)[C@@H](NC(=O)[C@H](Cc3ccccc3)NC(=O)[C@H](CCC(=O)O)NC(=O)[C@@H]3CCCCNC(=O)CC[C@H](NC(=O)[C@H](CC(=O)O)NC(=O)[C@H](CC(C)C)NC(=O)[C@H](Cc4ccc(O)cc4)NC(=O)[C@H](CCCCN)NC(=O)[C@H](CO)NC(=O)[C@H](Cc4ccc(O)cc4)NC(=O)[C@H](CC(=O)O)NC(=O)[C@H](CO)NC(=O)[C@@H](NC(=O)[C@H](Cc4ccccc4)NC(=O)[C@@H](NC(=O)CNC(=O)[C@H](CCC(N)=O)NC(=O)C(C)(C)NC(=O)[C@@H](N)Cc4c[nH]cn4)[C@@H](C)O)[C@@H](C)O)C(=O)N[C@@H](CCC(N)=O)C(=O)N[C@@H](C)C(=O)N[C@@H](C)C(=O)N3)[C@@H](C)CC)C(=O)N[C@@H](Cc3c[nH]c4ccccc34)C(=O)N[C@@H](CC(C)C)C(=O)N[C@@H](CC(C)C)C(=O)N[C@@H](CCC(N)=O)C(=O)N[C@H](C(=O)O)[C@@H](C)O)C(=O)O)C(=O)O)[C@H](O)[C@H](O)[C@H]2O)[C@@H](O)[C@H](O)[C@H]1O [EU-A1620] |
| 0.774 | 2.08 | CCCCCCCCCCCCCCO[C@@H]1O[C@H](CO[C@H]2O[C@H](C(=O)N[C@@H](CCC(=O)N[C@@H](CCC(=O)NCCCC[C@H](NC(=O)[C@@H](NC(=O)[C@H](Cc3ccccc3)NC(=O)[C@H](CCC(=O)O)NC(=O)[C@@H]3CCCCNC(=O)CC[C@H](NC(=O)[C@H](CC(=O)O)NC(=O)[C@H](CC(C)C)NC(=O)[C@H](Cc4ccc(O)cc4)NC(=O)[C@H](CCCCN)NC(=O)[C@H](CO)NC(=O)[C@H](Cc4ccc(O)cc4)NC(=O)[C@H](CC(=O)O)NC(=O)[C@H](CO)NC(=O)[C@@H](NC(=O)[C@H](Cc4ccccc4)NC(=O)[C@@H](NC(=O)CNC(=O)[C@H](CCC(N)=O)NC(=O)C(C)(C)NC(=O)[C@@H](N)Cc4c[nH]cn4)[C@@H](C)O)[C@@H](C)O)C(=O)N[C@@H](CCC(N)=O)C(=O)N[C@@H](C)C(=O)N[C@@H](C)C(=O)N3)[C@@H](C)CC)C(=O)N[C@@H](Cc3c[nH]c4ccccc34)C(=O)N[C@@H](CC(C)C)C(=O)N[C@@H](CC(C)C)C(=O)N[C@@H](CCC(N)=O)C(=O)N[C@H](C(=O)O)[C@@H](C)O)C(=O)O)C(=O)O)[C@H](O)[C@H](O)[C@H]2O)[C@@H](O)[C@H](O)[C@H]1O [EU-A1622] |
| 0.304 | 0.705 | CCCCCCCCCCCCCCO[C@@H]1O[C@H](CO[C@H]2O[C@H](C(=O)N[C@@H](CCC(=O)N[C@@H](CCC(=O)NCCCC[C@H](NC(=O)[C@@H](NC(=O)[C@H](Cc3ccccc3)NC(=O)[C@H](CCC(=O)O)NC(=O)[C@@H]3CCCCNC(=O)CC[C@H](NC(=O)[C@H](CC(=O)O)NC(=O)[C@H](CC(C)C)NC(=O)[C@H](Cc4ccc(O)cc4)NC(=O)[C@H](CCCCN)NC(=O)[C@H](CO)NC(=O)[C@H](Cc4ccc(O)cc4)NC(=O)[C@H](CC(=O)O)NC(=O)[C@H](CO)NC(=O)[C@@H](NC(=O)[C@H](Cc4ccccc4)NC(=O)[C@@H](NC(=O)CNC(=O)[C@H](CCC(N)=O)NC(=O)C(C)(C)NC(=O)[C@@H](N)Cc4c[nH]cn4)[C@@H](C)O)[C@@H](C)O)C(=O)N[C@@H](CCC(N)=O)C(=O)N[C@@H](C)C(=O)N[C@@H](C)C(=O)N3)[C@@H](C)CC)C(=O)N[C@@H](Cc3c[nH]c4ccccc34)C(=O)N[C@@H](CC(C)C)C(=O)N[C@@H](CC(C)C)C(=O)N[C@@H](CCC(N)=O)C(=O)N[C@H](C(N)=O)[C@@H](C)O)C(=O)O)C(=O)O)[C@H](O)[C@H](O)[C@H]2O)[C@@H](O)[C@H](O)[C@H]1O [EU-A1627] |
| 0.008 | 0.053 | CCCCCCCCCCCCO[C@@H]1O[C@H](C(=O)NCCCC[C@H](NC(=O)[C@@H](NC(=O)[C@H](Cc2ccccc2)NC(=O)[C@H](CCC(=O)O)NC(=O)[C@@H]2CCCCNC(=O)CC[C@H](NC(=O)[C@H](CC(=O)O)NC(=O)[C@H](CC(C)C)NC(=O)[C@H](Cc3ccc(O)cc3)NC(=O)[C@H](CCCCN)NC(=O)[C@H](CO)NC(=O)[C@H](Cc3ccc(O)cc3)NC(=O)[C@H](CC(=O)O)NC(=O)[C@H](CO)NC(=O)[C@@H](NC(=O)[C@H](Cc3ccccc3)NC(=O)[C@@H](NC(=O)CNC(=O)[C@H](CCC(N)=O)NC(=O)C(C)(C)NC(=O)[C@@H](N)Cc3c[nH]cn3)[C@@H](C)O)[C@@H](C)O)C(=O)N[C@@H](CCC(N)=O)C(=O)N[C@@H](C)C(=O)N[C@@H](C)C(=O)N2)[C@@H](C)CC)C(=O)N[C@@H](Cc2c[nH]c3ccccc23)C(=O)N[C@@H](CC(C)C)C(=O)N[C@@H](CC(C)C)C(=O)N[C@@H](CCC(N)=O)C(=O)N[C@H](C(=O)NCCOCCOCCOCCOCCC(=O)O)[C@@H](C)O)[C@@H](O)[C@H](O)[C@H]1O [EU-A1633] |
| 0.052 | 0.493 | CCCCCCCCCCCCCCO[C@@H]1O[C@H](C(=O)NCCCC[C@H](NC(=O)[C@@H](NC(=O)[C@H](Cc2ccccc2)NC(=O)[C@H](CCC(=O)O)NC(=O)[C@@H]2CCCCNC(=O)CC[C@H](NC(=O)[C@H](CC(=O)O)NC(=O)[C@H](CC(C)C)NC(=O)[C@H](Cc3ccc(O)cc3)NC(=O)[C@H](CCCCN)NC(=O)[C@H](CO)NC(=O)[C@H](Cc3ccc(O)cc3)NC(=O)[C@H](CC(=O)O)NC(=O)[C@H](CO)NC(=O)[C@@H](NC(=O)[C@H](Cc3ccccc3)NC(=O)[C@@H](NC(=O)CNC(=O)[C@H](CCC(N)=O)NC(=O)C(C)(C)NC(=O)[C@@H](N)Cc3c[nH]cn3)[C@@H](C)O)[C@@H](C)O)C(=O)N[C@@H](CCC(N)=O)C(=O)N[C@@H](C)C(=O)N[C@@H](C)C(=O)N2)[C@@H](C)CC)C(=O)N[C@@H](Cc2c[nH]c3ccccc23)C(=O)N[C@@H](CC(C)C)C(=O)N[C@@H](CC(C)C)C(=O)N[C@@H](CCC(N)=O)C(=O)N[C@H](C(=O)NCCOCCOCCOCCOCCC(=O)O)[C@@H](C)O)[C@@H](O)[C@H](O)[C@H]1O [EU-A1634] |
| 0.071 | 1.98 | CCCCCCCCCCCCCCCCO[C@@H]1O[C@H](C(=O)NCCCC[C@H](NC(=O)[C@@H](NC(=O)[C@H](Cc2ccccc2)NC(=O)[C@H](CCC(=O)O)NC(=O)[C@@H]2CCCCNC(=O)CC[C@H](NC(=O)[C@H](CC(=O)O)NC(=O)[C@H](CC(C)C)NC(=O)[C@H](Cc3ccc(O)cc3)NC(=O)[C@H](CCCCN)NC(=O)[C@H](CO)NC(=O)[C@H](Cc3ccc(O)cc3)NC(=O)[C@H](CC(=O)O)NC(=O)[C@H](CO)NC(=O)[C@@H](NC(=O)[C@H](Cc3ccccc3)NC(=O)[C@@H](NC(=O)CNC(=O)[C@H](CCC(N)=O)NC(=O)C(C)(C)NC(=O)[C@@H](N)Cc3c[nH]cn3)[C@@H](C)O)[C@@H](C)O)C(=O)N[C@@H](CCC(N)=O)C(=O)N[C@@H](C)C(=O)N[C@@H](C)C(=O)N2)[C@@H](C)CC)C(=O)N[C@@H](Cc2c[nH]c3ccccc23)C(=O)N[C@@H](CC(C)C)C(=O)N[C@@H](CC(C)C)C(=O)N[C@@H](CCC(N)=O)C(=O)N[C@H](C(=O)NCCOCCOCCOCCOCCC(=O)O)[C@@H](C)O)[C@@H](O)[C@H](O)[C@H]1O [EU-A1635] |
| 0.029 | 0.091 | CCCCCCCCCCCCO[C@@H]1O[C@H](C(=O)NCCCC[C@H](NC(=O)[C@@H](NC(=O)[C@H](Cc2ccccc2)NC(=O)[C@H](CCC(=O)O)NC(=O)[C@@H]2CCCCNC(=O)CC[C@H](NC(=O)[C@H](CC(=O)O)NC(=O)[C@H](CC(C)C)NC(=O)[C@H](Cc3ccc(O)cc3)NC(=O)[C@H](CCCCN)NC(=O)[C@H](CO)NC(=O)[C@H](Cc3ccc(O)cc3)NC(=O)[C@H](CC(=O)O)NC(=O)[C@H](CO)NC(=O)[C@@H](NC(=O)[C@H](Cc3ccccc3)NC(=O)[C@@H](NC(=O)CNC(=O)[C@H](CCC(N)=O)NC(=O)C(C)(C)NC(=O)[C@@H](N)Cc3c[nH]cn3)[C@@H](C)O)[C@@H](C)O)C(=O)N[C@@H](CCC(N)=O)C(=O)N[C@@H](C)C(=O)N[C@@H](C)C(=O)N2)[C@@H](C)CC)C(=O)N[C@@H](Cc2c[nH]c3ccccc23)C(=O)N[C@@H](CC(C)C)C(=O)N[C@@H](CC(C)C)C(=O)N[C@@H](CCC(N)=O)C(=O)N[C@H](C(=O)NCCOCCOCCOCCOCCOCCOCCOCCOCCC(=O)O)[C@@H](C)O)[C@@H](O)[C@H](O)[C@H]1O [EU-A1645] |
| 0.029 | 0.332 | CCCCCCCCCCCCCCO[C@@H]1O[C@H](C(=O)NCCCC[C@H](NC(=O)[C@@H](NC(=O)[C@H](Cc2ccccc2)NC(=O)[C@H](CCC(=O)O)NC(=O)[C@@H]2CCCCNC(=O)CC[C@H](NC(=O)[C@H](CC(=O)O)NC(=O)[C@H](CC(C)C)NC(=O)[C@H](Cc3ccc(O)cc3)NC(=O)[C@H](CCCCN)NC(=O)[C@H](CO)NC(=O)[C@H](Cc3ccc(O)cc3)NC(=O)[C@H](CC(=O)O)NC(=O)[C@H](CO)NC(=O)[C@@H](NC(=O)[C@H](Cc3ccccc3)NC(=O)[C@@H](NC(=O)CNC(=O)[C@H](CCC(N)=O)NC(=O)C(C)(C)NC(=O)[C@@H](N)Cc3c[nH]cn3)[C@@H](C)O)[C@@H](C)O)C(=O)N[C@@H](CCC(N)=O)C(=O)N[C@@H](C)C(=O)N[C@@H](C)C(=O)N2)[C@@H](C)CC)C(=O)N[C@@H](Cc2c[nH]c3ccccc23)C(=O)N[C@@H](CC(C)C)C(=O)N[C@@H](CC(C)C)C(=O)N[C@@H](CCC(N)=O)C(=O)N[C@H](C(=O)NCCOCCOCCOCCOCCOCCOCCOCCOCCC(=O)O)[C@@H](C)O)[C@@H](O)[C@H](O)[C@H]1O [EU-A1646] |
